Data as given in ChEMBL document CHEMBL5380778, “Structure-Directed Discovery of Potent Soluble Epoxide Hydrolase Inhibitors for the Treatment of Inflammatory Diseases” (J Med Chem, 2023).

How the values were obtained:
[1] = Cmax in Sprague-Dawley rat at 50 mg/kg, po administered as single dose and measured upto 8 hrs by HPLC analysis; assay type: ADME, organism-based; set-up: time < 8 hrs, dose 50 mg/kg, route po; conditions: in vivo
[2] = Metabolic stability in Sprague-Dawley rat liver microsomes assessed as half-life measured upto 60 mins in the presence of NADPH generating system by HPLC analysis; assay type: ADME, Microsome; conditions: 1 h
[3] = Protein binding in Sprague-Dawley rat plasma by equilibrium dialysis; assay type: ADME, cell-free
[4] = Microsomal stability in Sprague-Dawley rat liver microsomes assessed as mean compound concentration measured after 60 mins in the presence of NADPH-generating system by HPLC analysis (Rvb= 100 ug/ml); assay type: ADME, Microsome; conditions: 1 h
Mus musculus [5] = test: Anti-inflammatory activity in L-arginine-induced acute pancreatitis kunming mouse model assessed as reversal of L-arginine induced pancreatic injury by measuring total score at 8 mg/kg, ip pre-treated with L-arginine for 14 hrs followed by compound treatment and measured after 10 hrs by histologic scoring analysis (reference value: 6.25 +/- 0.96); assay type: functional
[6] = Apparent volume of distribution in Sprague-Dawley rat at 50 mg/kg, po administered as single dose and measured upto 8 hrs by HPLC analysis; assay type: ADME, organism-based; conditions: in vivo
Mus musculus [7] = test: Anti-inflammatory activity in L-arginine-induced acute pancreatitis kunming mouse model assessed as reversal of L-arginine induced pancreatic injury by measuring total score at 3 mg/kg, ip pre-treated with L-arginine for 14 hrs followed by compound treatment and measured after 10 hrs by histologic scoring analysis (reference value: 6.25 +/- 0.96); assay type: functional
[8] = Microsomal stability in human liver microsomes assessed as mean compound concentration measured after 60 mins in the presence of NADPH-generating system by HPLC analysis (Rvb= 100 ug/ml); assay type: ADME, Microsome; conditions: 1 h
[9] = Microsomal stability in human liver microsomes assessed as mean compound concentration measured after 30 mins in the presence of NADPH-generating system by HPLC analysis (Rvb= 100 ug/ml); assay type: ADME, Microsome; conditions: 0.5 h
[10] = Half-life in Sprague-Dawley rat at 50 mg/kg, po administered as single dose and measured upto 8 hrs by HPLC analysis; assay type: ADME, organism-based; conditions: in vivo
[11] = target: T1, Bifunctional epoxide hydrolase 2 (Homo sapiens, UniProt P34913); test: Inhibition of recombinant human soluble epoxide hydrolase using PHOME as substrate assessed as 6-methoxynaphthaldehyde product formation preincubated with compound for 10 mins followed by substrate addition and measured by fluorescence based analysis
T1 sequence (P34913 whole entry): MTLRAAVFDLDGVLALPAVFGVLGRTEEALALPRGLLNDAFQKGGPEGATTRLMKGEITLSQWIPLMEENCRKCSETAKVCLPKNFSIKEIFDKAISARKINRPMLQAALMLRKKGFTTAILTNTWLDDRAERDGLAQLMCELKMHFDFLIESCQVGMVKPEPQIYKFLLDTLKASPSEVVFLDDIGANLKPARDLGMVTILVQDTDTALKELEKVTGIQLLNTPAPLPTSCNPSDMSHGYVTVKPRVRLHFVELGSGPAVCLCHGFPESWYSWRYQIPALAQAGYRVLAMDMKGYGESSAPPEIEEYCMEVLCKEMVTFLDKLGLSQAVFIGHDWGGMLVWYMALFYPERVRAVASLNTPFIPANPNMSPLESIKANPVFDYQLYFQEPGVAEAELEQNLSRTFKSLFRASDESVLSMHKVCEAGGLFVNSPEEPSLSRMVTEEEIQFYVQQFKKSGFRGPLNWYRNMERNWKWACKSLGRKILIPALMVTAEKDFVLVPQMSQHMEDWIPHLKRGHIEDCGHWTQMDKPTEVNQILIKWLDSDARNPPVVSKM

[12] = Toxicity in mouse assessed as effect on body weight at 200 mg/kg, po administered for 7 days; assay type: organism-based; conditions: in vivo, 168 h, time 7 day
[13] = Toxicity in LPS-induced C57BL/6 sepsis mouse model assessed as survival rate at 5 mg/kg, ip administered at 4 and 12 hrs post LPS-induction and measured after 35 hrs relative to control; assay type: organism-based; conditions: in vivo
[14] = AUC (0 to infinity) in Sprague-Dawley rat at 50 mg/kg, po administered as single dose and measured upto 8 hrs by HPLC analysis; assay type: ADME, organism-based; set-up: time < 8 hrs, dose 50 mg/kg, route po; conditions: in vivo
[15] = Microsomal stability in Sprague-Dawley rat liver microsomes assessed as mean compound concentration measured after 30 mins in the presence of NADPH-generating system by HPLC analysis (Rvb= 100 ug/ml); assay type: ADME, Microsome; conditions: 0.5 h
[16] = Oral bioavailability in Sprague-Dawley rat at 50 mg/kg administered as single dose and measured upto 8 hrs by HPLC analysis; assay type: ADME, organism-based; conditions: in vivo
[17] = Half-life in Sprague-Dawley rat at 10 mg/kg, iv administered as single dose and measured upto 8 hrs by HPLC analysis; assay type: ADME, organism-based; conditions: in vivo
[18] = Clearance in Sprague-Dawley rat at 10 mg/kg, iv administered as single dose and measured upto 8 hrs by HPLC analysis; assay type: ADME, organism-based; conditions: in vivo
[19] = Toxicity in mouse assessed as tolerance by measuring adverse events at 200 mg/kg, po administered for 7 days; assay type: organism-based; conditions: in vivo, 168 h, time 7 day
[20] = Metabolic stability in human liver microsomes assessed as half-life measured upto 60 mins in the presence of NADPH generating system by HPLC analysis; assay type: ADME, Microsome; conditions: 1 h
[21] = target: T2, Bifunctional epoxide hydrolase 2 (Mus musculus, UniProt P34914); test: Inhibition of recombinant mouse soluble epoxide hydrolase using PHOME as substrate assessed as 6-methoxynaphthaldehyde product formation preincubated with compound for 10 mins followed by substrate addition and measured by fluorescence based analysis
T2 sequence (P34914 whole entry): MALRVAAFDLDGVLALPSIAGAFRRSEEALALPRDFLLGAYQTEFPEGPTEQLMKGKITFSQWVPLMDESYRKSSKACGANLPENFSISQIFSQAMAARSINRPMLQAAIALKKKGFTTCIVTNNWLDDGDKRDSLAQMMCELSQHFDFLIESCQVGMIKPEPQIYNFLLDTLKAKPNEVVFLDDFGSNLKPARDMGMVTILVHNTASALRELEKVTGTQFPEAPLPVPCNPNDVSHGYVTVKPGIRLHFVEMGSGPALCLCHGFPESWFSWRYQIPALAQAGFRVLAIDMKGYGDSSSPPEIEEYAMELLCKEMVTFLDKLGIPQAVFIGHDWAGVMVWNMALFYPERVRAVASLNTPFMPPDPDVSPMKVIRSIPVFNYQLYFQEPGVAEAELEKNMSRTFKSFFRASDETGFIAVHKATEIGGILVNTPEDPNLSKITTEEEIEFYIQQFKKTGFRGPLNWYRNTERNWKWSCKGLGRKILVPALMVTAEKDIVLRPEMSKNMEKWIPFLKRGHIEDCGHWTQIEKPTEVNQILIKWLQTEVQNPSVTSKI

[22] = Microsomal stability in Sprague-Dawley rat liver microsomes assessed as mean compound concentration measured after 10 mins in the presence of NADPH-generating system by HPLC analysis (Rvb= 100 ug/ml); assay type: ADME, Microsome
[23] = Tmax in Sprague-Dawley rat at 10 mg/kg, iv administered as single dose and measured upto 8 hrs by HPLC analysis; assay type: ADME, organism-based; conditions: in vivo
[24] = Microsomal stability in human liver microsomes assessed as mean compound concentration measured after 10 mins in the presence of NADPH-generating system by HPLC analysis (Rvb= 100 ug/ml); assay type: ADME, Microsome
[25] = Toxicity in LPS-induced C57BL/6 sepsis mouse model assessed as survival rate at 5 mg/kg, ip administered at 4 and 12 hrs post LPS-induction and measured after 28 hrs relative to control; assay type: organism-based; conditions: in vivo
[26] = AUC (0 to 8 hrs) in Sprague-Dawley rat at 50 mg/kg, po administered as single dose and measured upto 8 hrs by HPLC analysis; assay type: ADME, organism-based; set-up: dose 50 mg/kg, time < 8 hrs, route po; conditions: in vivo
[27] = Apparent volume of distribution in Sprague-Dawley rat at 10 mg/kg, iv administered as single dose and measured upto 8 hrs by HPLC analysis; assay type: ADME, organism-based; conditions: in vivo
[28] = AUC (0 to 8 hrs) in Sprague-Dawley rat at 10 mg/kg, iv administered as single dose and measured upto 8 hrs by HPLC analysis; assay type: ADME, organism-based; set-up: time < 8 hrs, dose 10 mg/kg, route iv; conditions: in vivo
[29] = Tmax in Sprague-Dawley rat at 50 mg/kg, po administered as single dose and measured upto 8 hrs by HPLC analysis; assay type: ADME, organism-based; conditions: in vivo
[30] = Clearance in Sprague-Dawley rat at 50 mg/kg, po administered as single dose and measured upto 8 hrs by HPLC analysis; assay type: ADME, organism-based; conditions: in vivo
[31] = AUC (0 to infinity) in Sprague-Dawley rat at 10 mg/kg, iv administered as single dose and measured upto 8 hrs by HPLC analysis; assay type: ADME, organism-based; set-up: dose 10 mg/kg, time < 8 hrs, route iv; conditions: in vivo
[32] = Cmax in Sprague-Dawley rat at 10 mg/kg, iv administered as single dose and measured upto 8 hrs by HPLC analysis; assay type: ADME, organism-based; set-up: time < 8 hrs, dose 10 mg/kg, route iv; conditions: in vivo

Which Cmax [1] does the source give for `CCC(=O)N1CCCN(C(=O)C2CCCN(Cc3ccc(NC(=O)N[C@@]45C[C@@H]6C[C@@](C)(C[C@@](C)(C6)C4)C5)c(F)c3)C2)CC1` (some centres not stated) here?
The Cmax was 2.92 nM.

What about the t1/2 [2] of the same molecule?
Its t1/2 is 3.15 h.

What about the PPB [3] of the same molecule?
Its PPB is 72.57%.

And the Stability [4]?
The Stability was 62.01 µg/mL.

What about the Activity (Mus musculus [5]) of the same molecule?
Its Activity is 3.5.

And the Vz [6]?
Its Vz is 13.12 L/kg.

What about the Activity (Mus musculus [7]) of the same molecule?
Its Activity is 4.25.

What about the Stability [8] of the same molecule?
Its Stability is 68.78 µg/mL.

And the Stability [9]?
The Stability was 74.76 µg/mL.

What about the t1/2 [10] of the same molecule?
The t1/2 was 5.55 h.

What about the IC50 [11] of the same molecule?
Its IC50 is 0.05 nM.

What about the Activity [12] of the same molecule?
Its Activity is “Non-Toxic”.

And the Activity [13]?
The Activity was 12.5%.

What about the AUC [14] of the same molecule?
The AUC was 10.15 nM·h.

What about the Stability [15] of the same molecule?
The Stability was 66.63 µg/mL.

What about the F [16] of the same molecule?
Its F is 20.85%.

What about the t1/2 [17] of the same molecule?
Its t1/2 is 5.72 h.

And the CL [18]?
Its CL is 4.83 mL/min/kg.

What about the Activity [19] of the same molecule?
The Activity was “Non-Toxic”.

And the t1/2 [20]?
Its t1/2 is 3.7 h.

What about the IC50 [21] of the same molecule?
The IC50 was 0.14 nM.

What about the Stability [22] of the same molecule?
Its Stability is 75.04 µg/mL.

What about the Tmax [23] of the same molecule?
The Tmax was 1.8 min.

And the Stability [24]?
Its Stability is 81.12 µg/mL.

What about the Activity [25] of the same molecule?
The Activity was 37.5%.

And the AUC [26]?
Its AUC is 6.39 nM·h.

And the Vz [27]?
The Vz was 2.39 L/kg.

What about the AUC [28] of the same molecule?
The AUC was 6.13 nM·h.

What about the Tmax [29] of the same molecule?
The Tmax was 0.25 h.

And the CL [30]?
Its CL is 28.3 mL/min/kg.

And the AUC [31]?
Its AUC is 11.47 nM·h.

What about the Cmax [32] of the same molecule?
Its Cmax is 3.77 nM.
